Laboratory results taken from patent US12697368B2, “TSG6 polypeptide fragment for dry eye disease” (The University of Manchester, priority 2019, dated 2026).

Key:
rat eyes = conditions: ethanol application and mechanical debridement; cited from earlier work
[1] = Aggregation state in PBS by dynamic light scattering (DLS); format: physicochemical
Method: (§1) The solubility and aggregation state of full-length TSG-6 and LINK_TSG6 in PBS were compared using UV spectrophotometry and dynamic light scattering (DLS) at a range of concentrations. […] The full-length protein had much lower solubility with less than 40% of the protein remaining in solution at 0.4, 0.8, 1.6. and 3.2 mg/ml.

NOD.B10.H2b mice = conditions: recombinant TSG-6 (0.1%) topical 4 times a day, 1 week; vs 0.05% cyclosporine twice a day; cited from earlier work
[2] = interaction is cooperative; cited from earlier work
[3] = Solubility in PBS by UV spectrophotometry; format: physicochemical
Method: as §1

For “full-length TSG-6: full length human recombinant TSG-6 protein (R&D Systems), ~35 kDa secreted product of TNF-stimulated gene-6”, which “corneal opacity as compared to a PBS control” value (rat eyes) is on record?
The value was “reduced”.

What about the “neovascularization as compared to a PBS control” value (rat eyes) of the same substance?
The value was “reduced”.

What about the aggregation ([1]; 0.2, 0.4, 0.8, 1.6 and 3.2 mg/ml) of the same substance?
The aggregation was “highly aggregated”.

And the “size of aggregates formed” value ([1]; 1.6 and 3.2 mg/ml, DLS measurements out of range)?
Its value is “greater than 25 million”.

And the “efficacy in inflammation mediated dry eye compared with cyclosporine eye drops” value (NOD.B10.H2b mice)?
The value was “as effective”.

What about the “binding to HA compared with LINK_TSG6” value [2] of the same substance?
The value was “binds more effectively”.

What about the “protein remaining in solution” value ([3]; PBS, 0.4, 0.8, 1.6 and 3.2 mg/ml) of the same substance?
The value was “less than 40%”.

And the “solubility and stability in solution” value ([3]; general statement)?
Its value is “insoluble and prone to aggregation”.
